Assay results: US9969694B2, “N-(arylalkyl)-N′-pyrazolyl-urea, thiourea, guanidine and cyanoguanidine compounds as TrkA kinase inhibitors” (Array BioPharma Inc., priority 2012, dated 2018)

Assays:
Experiment in all cases: Off-Target Kinase Profiling
Format in all cases: biochemical
Settings in all cases: 10 μM; ATP near Km
LKB1 = biological target: T1, LKB1 (Homo sapiens, UniProt Q15831)
T1 construct: purchased Millipore, Inc. (KinaseProfiler service)
Outline: (§1)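 Compounds were screened at 10 μM in duplicate against a broad kinase panel, with ATP near the Km of each kinase. Values are percent of control, averaged over the two replicates.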

MLK1 = biological target: T2, MLK1 (Homo sapiens, UniProt P80192)
T2 construct: purchased Millipore, Inc. (KinaseProfiler service)
Outline: as §1

BLK_m = biological target: T3, BLK_m (Mus musculus, UniProt P16277)
T3 construct: purchased Millipore (KinaseProfiler service)
Outline: as §1

GSK3alpha = biological target: T4, GSK3alpha (Homo sapiens, UniProt P49840)
T4 construct: purchased Millipore, Inc. (KinaseProfiler service)
Outline: as §1

PhKgamma2 = biological target: T5, PhKgamma2 (Homo sapiens, UniProt P15735)
T5 construct: purchased Millipore, Inc. (KinaseProfiler service)
Outline: as §1

Plk2 = biological target: T6, Plk2 (Homo sapiens, UniProt Q9NYY3)
T6 construct: purchased Millipore, Inc. (KinaseProfiler service)
Outline: as §1

ULK2 = biological target: T7, ULK2 (Homo sapiens, UniProt Q8IYT8)
T7 construct: purchased Millipore, Inc. (KinaseProfiler service)
Outline: as §1

SRPK1 = biological target: T8, SRPK1 (Homo sapiens, UniProt Q96SB4)
T8 construct: purchased Millipore, Inc. (KinaseProfiler service)
Outline: as §1

CAMK2g = biological target: T9, CAMK2g (Homo sapiens, UniProt Q13555)
T9 construct: purchased Millipore (KinaseProfiler service)
Outline: as §1

KDR = biological target: T10, KDR (Homo sapiens, UniProt P35968)
T10 construct: purchased Millipore, Inc. (KinaseProfiler service)
Outline: as §1

Rsk1 = biological target: T11, Rsk1 (Homo sapiens, UniProt Q15418)
T11 construct: purchased Millipore, Inc. (KinaseProfiler service)
Outline: as §1

SRC = biological target: T12, SRC (Homo sapiens, UniProt P12931)
T12 construct: purchased Millipore, Inc. (KinaseProfiler service)
Outline: as §1

PrKX = biological target: T13, PrKX (Homo sapiens, UniProt P51817)
T13 construct: purchased Millipore, Inc. (KinaseProfiler service)
Outline: as §1

TAO1 = biological target: T14, TAO1 (Homo sapiens, UniProt Q7L7X3)
T14 construct: purchased Millipore, Inc. (KinaseProfiler service)
Outline: as §1

PKD1 = biological target: T15, PKD1 (Homo sapiens, UniProt Q15139)
T15 construct: purchased Millipore, Inc. (KinaseProfiler service)
Outline: as §1

TAK1 = biological target: T16, TAK1 (Homo sapiens, UniProt O43318)
T16 construct: purchased Millipore, Inc. (KinaseProfiler service)
Outline: as §1

SRPK2 = biological target: T17, SRPK2 (Homo sapiens, UniProt P78362)
T17 construct: purchased Millipore, Inc. (KinaseProfiler service)
Outline: as §1

MST1 = biological target: T18, MST1 (Homo sapiens, UniProt Q13043)
T18 construct: purchased Millipore, Inc. (KinaseProfiler service)
Outline: as §1

TNK2 = biological target: T19, TNK2 (Homo sapiens, UniProt Q07912)
T19 construct: purchased Millipore, Inc. (KinaseProfiler service)
Outline: as §1

AMPK(A1/B1/G1) = biological target: T20, AMPK(A1/B1/G1) (Homo sapiens, UniProt Q13131)
T20 construct: purchased Millipore (KinaseProfiler service)
Outline: as §1

p38beta = biological target: T21, p38beta (Homo sapiens, UniProt Q15759)
T21 construct: purchased Millipore, Inc. (KinaseProfiler service)
Outline: as §1

Rsk4 = biological target: T22, Rsk4 (Homo sapiens, UniProt Q9UK32)
T22 construct: purchased Millipore, Inc. (KinaseProfiler service)
Outline: as §1

CDK7/cyclinH/MAT1 = biological target: T23, CDK7/cyclinH/MAT1 (Homo sapiens, UniProt P50613)
T23 construct: purchased Millipore, Inc. (KinaseProfiler service)
Outline: as §1

EphB4 = biological target: T24, EphB4 (Homo sapiens, UniProt P54760)
T24 construct: purchased Millipore, Inc. (KinaseProfiler service)
Outline: as §1

ALK = biological target: T25, ALK (Homo sapiens, UniProt Q9UM73)
T25 construct: purchased Millipore (KinaseProfiler service)
Outline: as §1

TrkA = biological target: T26, TrkA (Homo sapiens, UniProt P04629)
T26 construct: purchased Millipore, Inc. (KinaseProfiler service)
Outline: as §1

WNK3 = biological target: T27, WNK3 (Homo sapiens, UniProt Q9BYP7)
T27 construct: purchased Millipore, Inc. (KinaseProfiler service)
Outline: as §1

Plk1 = biological target: T28, Plk1 (Homo sapiens, UniProt P53350)
T28 construct: purchased Millipore, Inc. (KinaseProfiler service)
Outline: as §1

IRR = biological target: T29, IRR (Homo sapiens, UniProt P14616)
T29 construct: purchased Millipore, Inc. (KinaseProfiler service)
Outline: as §1

mTOR/FKBP12 = biological target: T30, mTOR/FKBP12 (Homo sapiens, UniProt P42345)
T30 construct: purchased Millipore, Inc. (KinaseProfiler service)
Outline: as §1

Fes = biological target: T31, Fes (Homo sapiens, UniProt P07332)
T31 construct: purchased Millipore, Inc. (KinaseProfiler service)
Outline: as §1

MARK2 = biological target: T32, MARK2 (Homo sapiens, UniProt Q7KZI7)
T32 construct: purchased Millipore, Inc. (KinaseProfiler service)
Outline: as §1

GRK5 = biological target: T33, GRK5 (Homo sapiens, UniProt P34947)
T33 construct: purchased Millipore, Inc. (KinaseProfiler service)
Outline: as §1

Abl-P = biological target: T34, Abl-P (Homo sapiens, UniProt P00519)
T34 construct: purchased Millipore (KinaseProfiler service)
Outline: as §1

c-RAF = tested on: c-RAF
Outline: as §1

PKCiota = biological target: T35, PKCiota (Homo sapiens, UniProt P41743)
T35 construct: purchased Millipore, Inc. (KinaseProfiler service)
Outline: as §1

DAPK2 = biological target: T36, DAPK2 (Homo sapiens, UniProt Q9UIK4)
T36 construct: purchased Millipore, Inc. (KinaseProfiler service)
Outline: as §1

MAP3K5 = biological target: T37, MAP3K5 (Homo sapiens, UniProt Q99683)
T37 construct: purchased Millipore, Inc. (KinaseProfiler service)
Outline: as §1

ERK1 = biological target: T38, ERK1 (Homo sapiens, UniProt P27361)
T38 construct: purchased Millipore, Inc. (KinaseProfiler service)
Outline: as §1

EphA8 = biological target: T39, EphA8 (Homo sapiens, UniProt P29322)
T39 construct: purchased Millipore, Inc. (KinaseProfiler service)
Outline: as §1

DRAK1 = biological target: T40, DRAK1 (Homo sapiens, UniProt Q9UEE5)
T40 construct: purchased Millipore, Inc. (KinaseProfiler service)
Outline: as §1

T21 sequence (Q15759 whole entry): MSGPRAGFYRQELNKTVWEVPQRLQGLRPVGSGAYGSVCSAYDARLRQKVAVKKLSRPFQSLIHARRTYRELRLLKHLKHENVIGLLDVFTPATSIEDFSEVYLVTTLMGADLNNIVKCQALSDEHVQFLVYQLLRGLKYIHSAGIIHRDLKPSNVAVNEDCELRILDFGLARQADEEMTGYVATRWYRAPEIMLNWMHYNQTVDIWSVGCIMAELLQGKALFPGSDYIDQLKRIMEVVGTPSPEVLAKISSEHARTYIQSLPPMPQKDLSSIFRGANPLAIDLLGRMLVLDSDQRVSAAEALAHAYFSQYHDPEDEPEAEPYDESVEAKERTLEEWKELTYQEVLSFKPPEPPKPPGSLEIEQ
T19 sequence (Q07912 whole entry): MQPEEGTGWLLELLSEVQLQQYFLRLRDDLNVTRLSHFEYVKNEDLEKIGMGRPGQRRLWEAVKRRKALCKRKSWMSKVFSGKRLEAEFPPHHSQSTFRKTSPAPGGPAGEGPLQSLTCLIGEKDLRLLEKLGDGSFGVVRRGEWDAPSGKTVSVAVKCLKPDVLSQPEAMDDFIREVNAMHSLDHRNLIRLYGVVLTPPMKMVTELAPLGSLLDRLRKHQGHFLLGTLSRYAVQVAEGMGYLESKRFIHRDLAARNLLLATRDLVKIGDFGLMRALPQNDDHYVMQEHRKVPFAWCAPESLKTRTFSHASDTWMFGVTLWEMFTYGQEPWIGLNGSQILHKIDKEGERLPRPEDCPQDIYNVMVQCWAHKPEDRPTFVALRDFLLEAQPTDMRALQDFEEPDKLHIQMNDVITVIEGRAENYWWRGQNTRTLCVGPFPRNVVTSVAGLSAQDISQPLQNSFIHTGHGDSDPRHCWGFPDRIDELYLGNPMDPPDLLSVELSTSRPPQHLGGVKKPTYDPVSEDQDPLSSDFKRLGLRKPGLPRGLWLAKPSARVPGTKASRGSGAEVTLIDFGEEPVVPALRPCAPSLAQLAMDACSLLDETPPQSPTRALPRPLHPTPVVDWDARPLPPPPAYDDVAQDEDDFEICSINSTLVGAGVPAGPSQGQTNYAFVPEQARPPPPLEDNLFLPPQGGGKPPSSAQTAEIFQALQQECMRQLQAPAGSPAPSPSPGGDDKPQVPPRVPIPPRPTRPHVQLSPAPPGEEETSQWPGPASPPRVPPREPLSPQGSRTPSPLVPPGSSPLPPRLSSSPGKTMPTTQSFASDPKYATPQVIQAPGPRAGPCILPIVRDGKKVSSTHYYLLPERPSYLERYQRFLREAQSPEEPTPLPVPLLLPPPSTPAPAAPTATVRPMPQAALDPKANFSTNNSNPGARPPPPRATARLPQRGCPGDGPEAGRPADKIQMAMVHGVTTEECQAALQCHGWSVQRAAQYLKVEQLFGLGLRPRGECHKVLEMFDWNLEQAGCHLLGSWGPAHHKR
T3 sequence (P16277 whole entry): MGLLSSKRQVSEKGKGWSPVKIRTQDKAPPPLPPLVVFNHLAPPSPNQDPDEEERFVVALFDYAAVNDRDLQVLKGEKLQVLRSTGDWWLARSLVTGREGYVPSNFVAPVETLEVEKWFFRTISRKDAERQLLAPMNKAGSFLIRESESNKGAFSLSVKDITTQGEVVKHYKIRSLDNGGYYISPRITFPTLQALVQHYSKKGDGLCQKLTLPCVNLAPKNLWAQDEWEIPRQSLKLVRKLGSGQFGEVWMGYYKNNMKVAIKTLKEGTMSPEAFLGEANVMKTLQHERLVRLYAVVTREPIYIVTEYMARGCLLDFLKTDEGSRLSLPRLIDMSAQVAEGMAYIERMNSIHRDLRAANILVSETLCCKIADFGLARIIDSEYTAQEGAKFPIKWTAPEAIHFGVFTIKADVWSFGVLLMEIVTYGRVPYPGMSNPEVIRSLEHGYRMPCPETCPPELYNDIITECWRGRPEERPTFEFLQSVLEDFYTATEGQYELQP
T23 sequence (P50613 whole entry): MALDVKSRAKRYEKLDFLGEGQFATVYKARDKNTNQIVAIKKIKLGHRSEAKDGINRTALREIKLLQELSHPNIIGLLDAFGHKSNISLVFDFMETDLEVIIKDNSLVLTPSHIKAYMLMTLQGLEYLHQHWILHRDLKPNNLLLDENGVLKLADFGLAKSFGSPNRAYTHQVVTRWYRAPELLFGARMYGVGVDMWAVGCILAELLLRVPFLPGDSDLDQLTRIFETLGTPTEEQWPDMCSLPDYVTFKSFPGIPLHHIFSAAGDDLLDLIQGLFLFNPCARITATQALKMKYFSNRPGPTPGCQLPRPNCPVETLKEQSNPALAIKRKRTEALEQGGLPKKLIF
T23 sequence (P51946 whole entry partner): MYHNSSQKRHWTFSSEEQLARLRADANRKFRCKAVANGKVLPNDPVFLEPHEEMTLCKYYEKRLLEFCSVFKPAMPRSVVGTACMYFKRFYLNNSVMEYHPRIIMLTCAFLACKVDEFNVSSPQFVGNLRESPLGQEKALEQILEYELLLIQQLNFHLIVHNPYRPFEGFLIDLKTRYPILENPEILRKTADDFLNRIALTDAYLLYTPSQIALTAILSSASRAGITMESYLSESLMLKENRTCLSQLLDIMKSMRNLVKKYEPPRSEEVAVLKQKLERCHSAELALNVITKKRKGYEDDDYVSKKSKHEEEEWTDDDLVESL
T23 sequence (P51948 whole entry partner): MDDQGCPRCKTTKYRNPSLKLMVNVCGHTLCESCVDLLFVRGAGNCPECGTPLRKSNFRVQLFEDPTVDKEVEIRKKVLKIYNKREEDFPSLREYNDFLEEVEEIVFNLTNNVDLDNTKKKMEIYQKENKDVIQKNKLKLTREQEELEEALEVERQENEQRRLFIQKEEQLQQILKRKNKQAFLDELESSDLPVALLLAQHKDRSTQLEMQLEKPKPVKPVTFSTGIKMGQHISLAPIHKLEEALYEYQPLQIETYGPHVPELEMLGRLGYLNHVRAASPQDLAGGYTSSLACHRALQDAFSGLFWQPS
T36 sequence (Q9UIK4 whole entry): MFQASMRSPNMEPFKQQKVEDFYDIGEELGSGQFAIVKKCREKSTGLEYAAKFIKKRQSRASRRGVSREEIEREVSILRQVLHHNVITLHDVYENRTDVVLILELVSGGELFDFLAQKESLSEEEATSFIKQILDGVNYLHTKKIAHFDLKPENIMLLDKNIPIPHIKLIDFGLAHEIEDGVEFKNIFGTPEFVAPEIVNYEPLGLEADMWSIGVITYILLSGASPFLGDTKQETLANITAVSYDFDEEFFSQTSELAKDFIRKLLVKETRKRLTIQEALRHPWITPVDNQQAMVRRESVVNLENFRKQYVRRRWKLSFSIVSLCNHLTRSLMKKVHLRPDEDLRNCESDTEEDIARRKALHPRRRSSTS
T34 sequence (P00519 whole entry): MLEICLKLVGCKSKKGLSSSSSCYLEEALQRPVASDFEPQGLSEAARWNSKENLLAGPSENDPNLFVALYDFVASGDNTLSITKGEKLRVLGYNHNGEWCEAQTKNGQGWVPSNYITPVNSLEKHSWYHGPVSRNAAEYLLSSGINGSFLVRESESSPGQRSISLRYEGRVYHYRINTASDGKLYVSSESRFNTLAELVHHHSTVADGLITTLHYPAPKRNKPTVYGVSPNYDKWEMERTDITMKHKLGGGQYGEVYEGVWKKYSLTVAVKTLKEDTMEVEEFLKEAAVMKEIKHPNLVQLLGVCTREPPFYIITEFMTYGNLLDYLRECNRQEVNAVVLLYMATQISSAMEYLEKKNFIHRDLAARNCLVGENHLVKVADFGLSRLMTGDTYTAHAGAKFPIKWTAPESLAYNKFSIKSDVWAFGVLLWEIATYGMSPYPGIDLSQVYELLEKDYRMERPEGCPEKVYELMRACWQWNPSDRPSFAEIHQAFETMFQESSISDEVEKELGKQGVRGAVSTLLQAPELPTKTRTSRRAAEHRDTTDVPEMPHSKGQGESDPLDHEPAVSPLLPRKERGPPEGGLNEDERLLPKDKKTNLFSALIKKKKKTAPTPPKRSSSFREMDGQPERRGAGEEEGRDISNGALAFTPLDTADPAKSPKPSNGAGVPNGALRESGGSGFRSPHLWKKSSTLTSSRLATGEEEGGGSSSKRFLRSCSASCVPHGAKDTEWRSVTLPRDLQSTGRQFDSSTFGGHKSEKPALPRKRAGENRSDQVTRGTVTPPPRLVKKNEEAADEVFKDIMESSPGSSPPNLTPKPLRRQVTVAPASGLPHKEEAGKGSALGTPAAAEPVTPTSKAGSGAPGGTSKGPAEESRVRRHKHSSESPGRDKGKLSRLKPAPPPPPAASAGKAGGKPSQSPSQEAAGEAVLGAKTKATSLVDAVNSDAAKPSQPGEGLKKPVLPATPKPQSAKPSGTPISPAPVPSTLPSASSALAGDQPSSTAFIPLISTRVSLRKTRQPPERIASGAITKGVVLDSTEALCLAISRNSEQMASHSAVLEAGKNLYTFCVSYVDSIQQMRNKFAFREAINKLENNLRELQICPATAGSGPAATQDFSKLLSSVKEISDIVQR
T9 sequence (Q13555 whole entry): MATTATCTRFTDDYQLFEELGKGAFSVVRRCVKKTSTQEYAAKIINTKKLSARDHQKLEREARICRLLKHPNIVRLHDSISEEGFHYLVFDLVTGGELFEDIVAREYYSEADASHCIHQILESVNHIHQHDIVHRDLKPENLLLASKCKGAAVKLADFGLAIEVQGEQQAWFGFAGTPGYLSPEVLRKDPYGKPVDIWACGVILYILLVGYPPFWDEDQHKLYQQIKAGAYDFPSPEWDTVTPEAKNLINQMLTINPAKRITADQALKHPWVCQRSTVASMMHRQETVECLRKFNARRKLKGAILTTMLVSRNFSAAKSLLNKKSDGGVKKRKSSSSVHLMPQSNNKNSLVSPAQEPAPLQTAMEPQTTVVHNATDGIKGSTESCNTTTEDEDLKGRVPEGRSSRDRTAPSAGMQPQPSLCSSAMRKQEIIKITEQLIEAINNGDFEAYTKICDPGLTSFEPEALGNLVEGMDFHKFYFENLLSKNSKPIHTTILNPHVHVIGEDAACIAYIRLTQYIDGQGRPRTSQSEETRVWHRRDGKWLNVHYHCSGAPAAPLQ

In the case of `COCc1ccc(C2CCC2)c(CNC(=O)Nc2c(C)c(-c3cnc(C)nc3)nn2-c2ccccc2)c1` [Example 10, 1-(2-cyclobutyl-5-(methoxymethyl)benzyl)-3-(4-methyl-3-(2-methylpyrimidin-5-yl)-1-phenyl-1H-pyrazol-5-yl)urea], the “Avg POC LKB1” value (LKB1) is reported as 89.5 POC, the “Avg POC MLK1” value (MLK1) is reported as 100.5 POC and the “Avg POC BLK_m” value (BLK_m) is reported as 97.5 POC. The “Avg POC GSK3alpha” value (GSK3alpha) was 105 POC, the “Avg POC PhKgamma2” value (PhKgamma2) was 118 POC and the “Avg POC Plk2” value (Plk2) was 101 POC. For the same compound, the “Avg POC ULK2” value (ULK2) was 89 POC, the “Avg POC SRPK1” value (SRPK1) was 116 POC and the “Avg POC CAMK2g” value (CAMK2g) was 101 POC. The “Avg POC KDR” value (KDR) was 97.5 POC, the “Avg POC Rsk1” value (Rsk1) was 96.5 POC and the “Avg POC SRC” value (SRC) was 96 POC. For the same compound, the “Avg POC PrKX” value (PrKX) was 73.5 POC, the “Avg POC TAO1” value (TAO1) was 111 POC and the “Avg POC PKD1” value (PKD1) was 94.5 POC. The “Avg POC TAK1” value (TAK1) was 86 POC, the “Avg POC SRPK2” value (SRPK2) was 114 POC and the “Avg POC MST1” value (MST1) was 87.5 POC. The “Avg POC TNK2” value (TNK2) was 114.5 POC, the “Avg POC AMPK(A1/B1/G1)” value (AMPK(A1/B1/G1)) was 111.5 POC and the “Avg POC p38beta” value (p38beta) was 101.5 POC. The “Avg POC Rsk4” value (Rsk4) was 87 POC, the “Avg POC CDK7/cyclinH/MAT1” value (CDK7/cyclinH/MAT1) was 96.5 POC and the “Avg POC EphB4” value (EphB4) was 140.5 POC. For the same compound, the “Avg POC ALK” value (ALK) was 102.5 POC, the “Avg POC TrkA” value (TrkA) was −1 POC and the “Avg POC WNK3” value (WNK3) was 101.5 POC. For the same compound, the “Avg POC Plk1” value (Plk1) was 84 POC, the “Avg POC IRR” value (IRR) was 96 POC and the “Avg POC mTOR/FKBP12” value (mTOR/FKBP12) was 97.5 POC. The “Avg POC Fes” value (Fes) was 90 POC, the “Avg POC MARK2” value (MARK2) was 98.5 POC and the “Avg POC GRK5” value (GRK5) was 81.5 POC. For the same compound, the “Avg POC Abl-P” value (Abl-P) was 97 POC, the “Avg POC c-RAF” value (c-RAF) was 90 POC and the “Avg POC PKCiota” value (PKCiota) was 65.5 POC. The “Avg POC DAPK2” value (DAPK2) was 105 POC, the “Avg POC MAP3K5” value (MAP3K5) was 99 POC and the “Avg POC ERK1” value (ERK1) was 89.5 POC. For the same compound, the “Avg POC EphA8” value (EphA8) was 97.5 POC and the “Avg POC DRAK1” value (DRAK1) was 92.5 POC.
